Reference: patent US9669003B2, “Use of flavone and flavanone derivatives in preparation of sedative and hypnotic drugs” (priority 2012, dated 2017)
Marks after values point to notes of the source that are not given here.

Legend:
Type in all cases: in vivo
[1] = system: Kunming mice; experiment: Influence on autonomic activity of normal mice (ZIL-2 mice autonomic activity meter, counts within 10 min); details: intragastric, x ± s; for Times of activities in 1 h after drug administration/10 min: 1 h after administration; for Times of activities in 2 h after drug administration/10 min: 2 h after administration; for Times of activities in 24 h after drug administration/10 min: 24 h after administration
Procedure, shortened: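 Kunming mice (10 per group, half each sex) were dosed at 25, 50 or 100 mg/kg in 0.5% CMC-Na. Spontaneous activity counts over 10 min were recorded at 1 h, 2 h and 24 h post-dose. Groups were compared by ANOVA with Dunnett's test after Levene's check.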

[2] = system: Kunming mice; experiment: Influence on hypnosis effect with pentobarbital sodium doses below the threshold (25 mg/kg i.p.); details: pentobarbital sodium 25 mg/kg i.p. 60 min later, sleep observed in 30 min, n = 10
Procedure, shortened: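 Kunming mice (10 per group, half female) given single oral doses of 25, 50 or 100 mg/kg in 0.5% CMC-Na; 60 min later pentobarbital sodium 25 mg/kg i.p. Sleep (righting reflex lost >1 min) scored within 30 min as percentage asleep, χ2 test.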

[3] = system: Kunming mice; experiment: Influence on hypnosis effect with pentobarbital sodium doses at the threshold (50 mg/kg i.p.); details: pentobarbital sodium 50 mg/kg i.p. 60 min later, x ± s, n = 10
Procedure, shortened: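 Kunming mice (10/group, half each sex) received compound in 0.5% CMC-Na intragastrically at 25, 50 or 100 mg/kg; 60 min later given 0.3% sodium pentobarbital 50 mg/kg i.p. Sleep latency and duration recorded by loss of righting reflex over 1 min; ANOVA and χ2 for sleep incidence.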

[4] = test drug 25 mg/kg intragastric single dose
[5] = test drug 50 mg/kg intragastric single dose
[6] = test drug 100 mg/kg intragastric single dose
[7] = 25 mg/kg intragastric single dose
[8] = 50 mg/kg intragastric single dose
[9] = 100 mg/kg intragastric single dose

| Structure (SMILES) | Number of sleeping animals [2, 4] | rate of sleeping (%) [2, 4] | Number of sleeping animals [2, 5] | rate of sleeping (%) [2, 5] | Number of sleeping animals [2, 6] | rate of sleeping (%) [2, 6] | duration of sleep [3, 7] [min] | time to sleep [3, 7] [min] | duration of sleep [3, 8] [min] | time to sleep [3, 8] [min] | duration of sleep [3, 9] [min] | time to sleep [3, 9] [min] | Times of activities in 1 h after drug administration/10 min ([1]; 25 mg/kg, n = 10) | Times of activities in 2 h after drug administration/10 min ([1]; 25 mg/kg, n = 10) | Times of activities in 24 h after drug administration/10 min ([1]; 25 mg/kg, n = 10) | Times of activities in 1 h after drug administration/10 min ([1]; 50 mg/kg, n = 10) | Times of activities in 2 h after drug administration/10 min ([1]; 50 mg/kg, n = 10) | Times of activities in 24 h after drug administration/10 min ([1]; 50 mg/kg, n = 10) | Times of activities in 1 h after drug administration/10 min ([1]; 100 mg/kg, n = 10) | Times of activities in 2 h after drug administration/10 min ([1]; 100 mg/kg, n = 10) | other results |
| --- | --- | --- | --- | --- | --- | --- | --- | --- | --- | --- | --- | --- | --- | --- | --- | --- | --- | --- | --- | --- | --- |
| COc1ccc(C2CC(=O)c3c(O)c(OC)c(OC)c(OC)c3O2)cc1OC (stereo not drawn) [Example 64, 5-hydroxyl-6,7,8,3′,4′-penta methoxyl-flavanone] | 4 | 40* % | 7 | 70** % | 8 | 80*** % | 24.78 ± 24.51 | 5.87 ± 2.32 | 48.23 ± 24.48 | 4.32 ± 1.29 | 53.43 ± 21.81 | 3.87 ± 2.43 |  |  |  |  |  |  |  |  | Times of activities in 1 h after drug administration/10 min ([1]; 25 mg/kg, n = 10, 25 mg/kg): 323.9 ± 45.4 /10 min; Times of activities in 2 h after drug administration/10 min ([1]; 25 mg/kg, n = 10, 25 mg/kg): 310.9 ± 55.9 /10 min; Times of activities in 24 h after drug administration/10 min ([1]; 25 mg/kg, n = 10, 25 mg/kg): 331.3 ± 94.5 /10 min; Times of activities in 1 h after drug administration/10 min ([1]; 50 mg/kg, n = 10, 50 mg/kg): 283.8 ± 60.4 /10 min; Times of activities in 2 h after drug administration/10 min ([1]; 50 mg/kg, n = 10, 50 mg/kg): 269.7 ± 44.6 /10 min; Times of activities in 24 h after drug administration/10 min ([1]; 50 mg/kg, n = 10, 50 mg/kg): 313.6 ± 93.1 /10 min; Times of activities in 1 h after drug administration/10 min ([1]; 100 mg/kg, n = 10, 100 mg/kg): 239.4 ± 35.6 /10 min; Times of activities in 2 h after drug administration/10 min ([1]; 100 mg/kg, n = 10, 100 mg/kg): 248.2 ± 44.7 /10 min; Times of activities in 24 h after drug administration/10 min ([1]; 100 mg/kg, n = 10, 100 mg/kg): 300.1 ± 81.3 /10 min |
| COc1ccc(C2CC(=O)c3c(O)c(OC)c(OC)c(OC)c3O2)cc1OC (stereo not drawn) [Example 43, 5-hydroxyl-6,7,8,3′,4′-penta methoxyl-flavanone] | 5 | 50** % | 7 | 70** % | 8 | 80*** % | 32.33 ± 23.16 | 4.88 ± 1.91 | 59.98 ± 18.43 | 4.19 ± 1.74 | 63.07 ± 33.12 | 3.85 ± 1.76 |  |  |  |  |  |  |  |  | Times of activities in 1 h after drug administration/10 min ([1]; 25 mg/kg, n = 10, 25 mg/kg): 293.7 ± 41.4 /10 min; Times of activities in 2 h after drug administration/10 min ([1]; 25 mg/kg, n = 10, 25 mg/kg): 306.3 ± 51.6 /10 min; Times of activities in 24 h after drug administration/10 min ([1]; 25 mg/kg, n = 10, 25 mg/kg): 324.7 ± 71.3 /10 min; Times of activities in 1 h after drug administration/10 min ([1]; 50 mg/kg, n = 10, 50 mg/kg): 254.1 ± 42.7 /10 min; Times of activities in 2 h after drug administration/10 min ([1]; 50 mg/kg, n = 10, 50 mg/kg): 252.6 ± 41.6 /10 min; Times of activities in 24 h after drug administration/10 min ([1]; 50 mg/kg, n = 10, 50 mg/kg): 313.7 ± 68.5 /10 min; Times of activities in 1 h after drug administration/10 min ([1]; 100 mg/kg, n = 10, 100 mg/kg): 265.4 ± 49.2 /10 min; Times of activities in 2 h after drug administration/10 min ([1]; 100 mg/kg, n = 10, 100 mg/kg): 258.1 ± 32.7 /10 min; Times of activities in 24 h after drug administration/10 min ([1]; 100 mg/kg, n = 10, 100 mg/kg): 294.1 ± 72.3 /10 min |
| COc1ccc(C2CC(=O)c3c(OC)cc(OC)c(OC)c3O2)cc1OC (stereo not drawn) [Example 44, 5,7,8,3′,4′-penta methoxyl-flavanone] | 6 | 60** % | 7 | 70** % | 9 | 90*** % | 58.25 ± 15.16 | 4.43 ± 1.55 | 76.74 ± 25.45 | 3.46 ± 1.23 | 89.39 ± 23.44 | 3.05 ± 1.57 | 220.8 ± 54.6 /10 min | 228.7 ± 43.3 /10 min | 311.6 ± 60.1 /10 min | 143.4 ± 41.3 /10 min | 133.5 ± 38.3 /10 min | 315.1 ± 85.5 /10 min | 103.4 ± 43.5 /10 min | 101.7 ± 45.1 /10 min | Times of activities in 24 h after drug administration/10 min ([1]; 100 mg/kg, n = 10): 303.8 ± 81.2 /10 min |
| COc1ccc(-c2cc(=O)c3c(O)cc(OC)c(OC)c3o2)c(OC)c1OC [Example 9, 5-hydroxyl-7,8,2′,3′,4′-penta methoxyl-flavone] | 6 | 60** % | 7 | 70** % | 8 | 80*** % | 49.14 ± 16.71 | 3.31 ± 1.81 | 72.31 ± 21.42 | 2.91 ± 1.52 | 85.16 ± 21.97 | 2.12 ± 1.12 | 258.4 ± 60.2 /10 min | 241.1 ± 34.1 /10 min | 314.2 ± 67.9 /10 min | 183.5 ± 45.9 /10 min | 194.3 ± 45.1 /10 min | 317.2 ± 80.9 /10 min | 129.0 ± 40.2 /10 min | 126.3 ± 39.8 /10 min | Times of activities in 24 h after drug administration/10 min ([1]; 100 mg/kg, n = 10): 323.5 ± 62.4 /10 min |
| Cc1cc(C2CC(=O)c3c(cccc3[N+](=O)[O-])O2)ccc1Oc1ccccc1 (stereo not drawn) [Example 63] | 6 | 60** % | 8 | 80*** % | 9 | 90*** % | 47.87 ± 14.62 | 3.43 ± 1.46 | 62.64 ± 22.64 | 3.09 ± 1.41 | 87.42 ± 18.53 | 2.33 ± 1.27 | 250.6 ± 35.5 /10 min | 239.3 ± 34.6 /10 min | 269.5 ± 79.5 /10 min | 168.5 ± 53.0 /10 min | 151.3 ± 57.0 /10 min | 283.8 ± 79.3 /10 min | 124.5 ± 42.0 /10 min | 117.3 ± 54.8 /10 min | Times of activities in 24 h after drug administration/10 min ([1]; 100 mg/kg, n = 10): 320.3 ± 76.0 /10 min |
| COc1ccc(C2CC(=O)c3c(O)cccc3O2)cc1O (stereo not drawn) [Example 62] | 3 | 30% | 4 | 40* % | 6 | 60** % | 34.29 ± 22.83 | 4.87 ± 1.96 | 57.24 ± 17.30 | 4.21 ± 1.72 | 65.03 ± 32.12 | 3.78 ± 1.90 | 279.2 ± 45.4 /10 min | 264.9 ± 44.7 /10 min | 309.0 ± 81.9 /10 min | 237.4 ± 41.9 /10 min | 242.6 ± 49.2 /10 min | 297.2 ± 69.5 /10 min | 125.6 ± 32.8 /10 min | 170.3 ± 35.2 /10 min | Times of activities in 24 h after drug administration/10 min ([1]; 100 mg/kg, n = 10): 279.4 ± 86.3 /10 min |
